Test results published in PubChem BioAssay AID1259408 (Genetic Toxicology Data Bank (GENE-TOX), 2018).
Active and inactive are the calls of the source. The rule behind the calls is not given here.

System: GENE-TOX genotoxicity assays, various organisms and cells
Test: GENE-TOX mutagenicity studies
Settings: for call: Assay Type: In vivo carcinogenicity studies
[1] = Species/Cell Type: Drosophila melanogaster, Assay Type: Sex-linked recessive lethal gene mutation, Assay Code: SRL+, Evaluation Type: Evaluation A (Pre-1980)
[2] = Species/Cell Type: Neurospora crassa, Assay Type: Forward gene mutation, Assay Code: NEF+, Evaluation Type: Evaluation A (Pre-1980)
[3] = Species/Cell Type: Saccharomyces cerevisiae, Assay Type: Mitotic recombination or gene conversion, Assay Code: YEH+, Evaluation Type: Evaluation A (Pre-1980)
[4] = Species/Cell Type: Nonhuman, Assay Code: CCG+, Evaluation Type: Evaluation A (Pre-1980)
[5] = Species/Cell Type: Salmonella typhimurium (one or more of the five standard strains: TA98, TA100, TA1535, TA1537, and TA1538), Assay Type: Histidine reverse gene mutation, Ames assay, Assay Code: SAL+, Evaluation Type: Evaluation A (Pre-1980)
[6] = Species/Cell Type: Saccharomyces cerevisiae, Assay Type: Reverse gene mutation, Assay Code: YERT, Evaluation Type: Evaluation A (Pre-1980)
[7] = Species/Cell Type: Saccharomyces cerevisiae, Assay Type: Mitotic recombination or gene conversion, Assay Code: YEH-, Evaluation Type: Evaluation A (Pre-1980)
[8] = Species/Cell Type: Saccharomyces cerevisiae, Assay Type: Mitotic recombination or gene conversion, Assay Code: YEC+, Evaluation Type: Evaluation A (Pre-1980)
[9] = Species/Cell Type: Mammalian polychromatic erythrocytes, Assay Type: Micronucleus test, chromosome aberrations, Assay Code: MNT+, Evaluation Type: Evaluation A (Pre-1980)
[10] = Species/Cell Type: Mouse, Sex: Male, Assay Type: Sperm morphology, Assay Code: SPI+, Evaluation Type: Evaluation A (Pre-1980)
[11] = Species/Cell Type: Nonhuman, Assay Type: Sister-chromatid exchange (SCE) in vitro, Assay Code: SC2+D, Dose Response: With dose response, Evaluation Type: Evaluation A (Pre-1980)
[12] = Species/Cell Type: Human, Assay Type: Sister-chromatid exchange (SCE) in vitro, Assay Code: SC1+D, Dose Response: With dose response, Evaluation Type: Evaluation B (Post-1980)

SMILES: NC(=O)c1ccc(/C=C/c2ccc([N+](=O)[O-])o2)cc1
- mutagenic call [1]: active; positive
- mutagenic call [2]: active; positive
- mutagenic call (Species/Cell Type: Neurospora crassa, Assay Type: Reverse gene mutation, Assay Code: NER+, Evaluation Type: Evaluation A (Pre-1980)): active; positive
- mutagenic call [3]: active; positive
- mutagenic call (Species/Cell Type: Saccharomyces cerevisiae, Assay Type: Reverse gene mutation, Assay Code: YER+, Evaluation Type: Evaluation A (Pre-1980)): active; positive

SMILES: COP(=S)(OC)Oc1cc(Cl)c(Br)cc1Cl
- mutagenic call (Species/Cell Type: Drosophila melanogaster, Assay Type: Sex-linked recessive lethal gene mutation, Assay Code: SRLT, Evaluation Type: Evaluation A (Pre-1980)): no conclusion

SMILES: COc1ccc([N+](=O)[O-])cc1N
- call [4]: active; positive
- mutagenic call [5]: active; positive

SMILES: COc1ccc(/C=N/NC(=O)COc2ccc(Br)cc2CN(C)C)cc1
- mutagenic call [6]: no conclusion

SMILES: C[C@H]1CCCC(=O)CCC/C=C/c2cc(O)cc(O)c2C(=O)O1
- mutagenic call (Species/Cell Type: Bacillus subtilis (H17 vs M45), Assay Type: Rec-assay, spot test, DNA effects (bacterial DNA repair), Assay Code: REW+, Evaluation Type: Evaluation A (Pre-1980)): active; positive
- mutagenic call [7]: inactive; negative

SMILES: CCN(Cc1cccc(S(=O)(=O)[O-])c1)c1ccc(C(=C2C=CC(=[N+](C)C)C=C2)c2ccc(N(CC)Cc3cccc(S(=O)(=O)O)c3)cc2)cc1
- mutagenic call (Species/Cell Type: Bacillus subtilis (H17 vs M45), Assay Type: Rec-assay, spot test, DNA effects (bacterial DNA repair), Assay Code: REWT, Evaluation Type: Evaluation A (Pre-1980)): no conclusion
- mutagenic call (Species/Cell Type: Bacillus subtilis (H17 vs M45T), Assay Type: Rec-assay, spot test, DNA effects (bacterial DNA repair), Assay Code: REXT, Evaluation Type: Evaluation A (Pre-1980)): no conclusion
- call [4]: active; positive
- mutagenic call (Species/Cell Type: Salmonella typhimurium (one or more of the five standard strains: TA98, TA100, TA1535, TA1537, and TA1538), Assay Type: Histidine reverse gene mutation, Ames assay, Assay Code: SAL-, Evaluation Type: Evaluation A (Pre-1980)): inactive; negative

SMILES: ONc1cccc2ccccc12
- mutagenic call (Species/Cell Type: Escherichia coli polA (W3119 vs P3478), Assay Type: Rec-assay, DNA effects (bacterial DNA repair), Assay Code: RE1+, Evaluation Type: Evaluation A (Pre-1980)): active; positive
- mutagenic call [2]: active; positive
- call (Species/Cell Type: Nonhuman, Assay Code: CCG+L, Evaluation Type: Evaluation A (Pre-1980)): active; positive
- mutagenic call [3]: active; positive
- mutagenic call [5]: active; positive
- mutagenic call (Species/Cell Type: Salmonella typhimurium, Assay Type: Forward and reverse gene mutation, host-mediated assay, Assay Code: HMA-, Evaluation Type: Evaluation A (Pre-1980)): inactive; negative

SMILES: CCOC(=O)COc1ccc(Br)cc1CCl (tested in a mixture with another compound)
- mutagenic call [6]: no conclusion

SMILES: O=Nc1ccc2ccccc2c1
- mutagenic call [5]: active; positive

SMILES: CC(CNC(=O)N(CCCl)N=O)NC(=O)N(CCCl)N=O (stereo not given)
- mutagenic call [1]: active; positive
- mutagenic call [8]: active; positive

SMILES: O=c1[nH]c(=O)n([C@H]2C[C@H](O)[C@@H](CO)O2)cc1Br
- mutagenic call (Species/Cell Type: Arabidopsis species, Assay Type: Gene mutation, Assay Code: ARMT, Evaluation Type: Evaluation A (Pre-1980)): no conclusion
- mutagenic call (Species/Cell Type: Chinese hamster lung (V79) cells, Assay Type: Forward gene mutation at the HPRT or ouabain locus, Assay Code: V79+, Evaluation Type: Evaluation A (Pre-1980)): active; positive
- mutagenic call (Species/Cell Type: Chinese hamster ovary (CHO) cells, Assay Type: Forward gene mutation at the HPRT locus, Assay Code: CHO+, Evaluation Type: Evaluation B (Post-1980)): active; positive
- mutagenic call [1]: active; positive
- mutagenic call (Species/Cell Type: Drosophila melanogaster, Sex: Male, Assay Type: Heritable translocation test, chromosome aberrations, Assay Code: DHTT, Evaluation Type: Evaluation A (Pre-1980)): no conclusion
- mutagenic call (Species/Cell Type: Escherichia coli polA (W3119 vs P3478), Assay Type: Rec-assay, DNA effects (bacterial DNA repair), Assay Code: RE1T, Evaluation Type: Evaluation A (Pre-1980)): no conclusion
- mutagenic call (Species/Cell Type: Human diploid fibroblasts, Assay Type: Unscheduled DNA synthesis (UDS) in vitro, DNA effects, Assay Code: UDH-, Evaluation Type: Evaluation A (Pre-1980)): inactive; negative
- mutagenic call (Species/Cell Type: Human embryo lung fibroblasts (WI-38 cells), Assay Type: Sister-chromatid exchange (SCE) in vitro, Assay Code: SCW+D, Dose Response: With dose response, Evaluation Type: Evaluation A (Pre-1980)): active; positive
- mutagenic call (Species/Cell Type: Human embryo lung fibroblasts (WI-38 cells), Assay Type: Sister-chromatid exchange (SCE) in vitro, Assay Code: SCW+D, Dose Response: With dose response, Evaluation Type: Evaluation B (Post-1980)): active; positive
- mutagenic call (Species/Cell Type: Human lymphocytes, Assay Type: Micronucleus test in vitro, chromosome aberrations, Assay Code: MN7+, Evaluation Type: Evaluation A (Pre-1980)): active; positive
- mutagenic call (Species/Cell Type: Human lymphocytes, Assay Type: Sister-chromatid exchange (SCE) in vitro, Assay Code: SCL+D, Dose Response: With dose response, Evaluation Type: Evaluation A (Pre-1980)): active; positive
- mutagenic call (Species/Cell Type: Human lymphocytes, Assay Type: Sister-chromatid exchange (SCE) in vitro, Assay Code: SCLT, Evaluation Type: Evaluation B (Post-1980)): no conclusion
- mutagenic call (Species/Cell Type: Human, Assay Type: Sister-chromatid exchange (SCE) in vitro, Assay Code: SC1+D, Dose Response: With dose response, Evaluation Type: Evaluation A (Pre-1980)): active; positive
- mutagenic call (Species/Cell Type: Human, Assay Type: Sister-chromatid exchange (SCE) in vitro, Assay Code: SC1T, Evaluation Type: Evaluation B (Post-1980)): no conclusion
- mutagenic call [9]: active; positive
- mutagenic call (Species/Cell Type: Mouse (C3H/10T1/2) cells, Assay Type: Cell transformation, Assay Code: CTH-, Evaluation Type: Evaluation A (Pre-1980)): inactive; negative
- mutagenic call [10]: active; positive
- call (Species/Cell Type: Nonhuman, Assay Code: CCGT, Evaluation Type: Evaluation A (Pre-1980)): no conclusion
- mutagenic call [11]: active; positive
- mutagenic call (Species/Cell Type: Nonhuman, Assay Type: Sister-chromatid exchange (SCE) in vitro, Assay Code: SC2+D, Dose Response: With dose response, Evaluation Type: Evaluation B (Post-1980)): active; positive
- mutagenic call (Species/Cell Type: Nonhuman, Assay Type: Sister-chromatid exchange (SCE) in vivo, Assay Code: SC3+D, Dose Response: With dose response, Evaluation Type: Evaluation A (Pre-1980)): active; positive
- mutagenic call (Species/Cell Type: Nonhuman, Assay Type: Sister-chromatid exchange (SCE) in vivo, Assay Code: SC3+D, Dose Response: With dose response, Evaluation Type: Evaluation B (Post-1980)): active; positive
- mutagenic call [7]: inactive; negative
- mutagenic call (Species/Cell Type: Syrian hamster embryo (SA7/SHE) cells, Assay Type: Cell transformation, viral enhanced, Assay Code: CT7+, Evaluation Type: Evaluation A (Pre-1980)): active; positive
- mutagenic call (Species/Cell Type: Syrian hamster embryo (SHE) cells, Assay Type: Cell transformation, clonal assay, Assay Code: CTCT, Evaluation Type: Evaluation A (Pre-1980)): no conclusion

SMILES: CC(C)C(=O)Nc1ccc([N+](=O)[O-])c(C(F)(F)F)c1
- mutagenic call (Species/Cell Type: Rodents, Sex: Male, Assay Type: Dominant lethal test, Assay Code: DLT-, Evaluation Type: Evaluation A (Pre-1980)): inactive; negative

SMILES: OCn1cnc2ccccc21
- mutagenic call (Species/Cell Type: Arabidopsis species, Assay Type: Gene mutation, Assay Code: ARM-, Evaluation Type: Evaluation A (Pre-1980)): inactive; negative

SMILES: CCOP(=S)(OCC)Oc1ccc(Cl)cc1Cl
- mutagenic call [12]: active; positive

SMILES: S=P(N1CC1)(N1CC1)N1CC1
- mutagenic call [1]: active; positive
- mutagenic call (Species/Cell Type: Human lymphocytes or leukocytes, Assay Type: Chromosome aberrations in vitro, Assay Code: CY7+, Evaluation Type: Evaluation A (Pre-1980)): active; positive
- mutagenic call (Species/Cell Type: Human lymphocytes, Assay Type: Sister-chromatid exchange (SCE) in vitro, Assay Code: SCL+D, Dose Response: With dose response, Evaluation Type: Evaluation B (Post-1980)): active; positive
- mutagenic call [12]: active; positive
- mutagenic call [9]: active; positive
- mutagenic call (Species/Cell Type: Mouse (C3H/10T1/2) cells, Assay Type: Cell transformation, Assay Code: CTH+, Evaluation Type: Evaluation A (Pre-1980)): active; positive
- mutagenic call (Species/Cell Type: Mouse, Sex: Male, Assay Type: Heritable translocation test, chromosome aberrations, Assay Code: HTT+, Evaluation Type: Evaluation A (Pre-1980)): active; positive
- mutagenic call [10]: active; positive
- mutagenic call (Species/Cell Type: Nonhuman bone marrow, Assay Type: Chromosome aberrations, in vivo, Assay Code: CY#+D, Dose Response: With dose response, Evaluation Type: Evaluation A (Pre-1980)): active; positive
- mutagenic call (Species/Cell Type: Nonhuman, Assay Type: Chromosome aberrations in vitro, Assay Code: CY&+, Evaluation Type: Evaluation A (Pre-1980)): active; positive
- call [4]: active; positive
- mutagenic call [11]: active; positive
- mutagenic call (Species/Cell Type: Rodents, Sex: Male, Assay Type: Dominant lethal test, Assay Code: DLT+D, Dose Response: With dose response, Evaluation Type: Evaluation A (Pre-1980)): active; positive
- mutagenic call [8]: active; positive
- mutagenic call [5]: active; positive
- mutagenic call (Species/Cell Type: Salmonella typhimurium, Assay Type: Forward and reverse gene mutation, host-mediated assay, Assay Code: HMA+, Evaluation Type: Evaluation A (Pre-1980)): active; positive
- mutagenic call (Species/Cell Type: Vicia faba, Assay Type: Chromosome aberrations, Assay Code: VIC+D, Dose Response: With dose response, Evaluation Type: Evaluation A (Pre-1980)): active; positive
